Laboratory results published in US12503438B2, “Compounds for the treatment of kinase-dependent disorders” (Exelixis, Inc., priority 2019, dated 2025).

How the values were obtained:
Human Axl = target: T1, Human Axl (Homo sapiens, UniProt P30530, Q764R); test: Human AXL kinase assay (33P-phosphoryl transfer radiometric, KinaseProfiler); settings: biochemical activity; 10 μM ATP
T1 construct: Human Axl (residues H473-A894 with Q764R, 161 nM); purchased Eurofins Pharma Discovery Services UK Limited (KinaseProfiler service)
T1 sequence (P30530 473-894 Q764R): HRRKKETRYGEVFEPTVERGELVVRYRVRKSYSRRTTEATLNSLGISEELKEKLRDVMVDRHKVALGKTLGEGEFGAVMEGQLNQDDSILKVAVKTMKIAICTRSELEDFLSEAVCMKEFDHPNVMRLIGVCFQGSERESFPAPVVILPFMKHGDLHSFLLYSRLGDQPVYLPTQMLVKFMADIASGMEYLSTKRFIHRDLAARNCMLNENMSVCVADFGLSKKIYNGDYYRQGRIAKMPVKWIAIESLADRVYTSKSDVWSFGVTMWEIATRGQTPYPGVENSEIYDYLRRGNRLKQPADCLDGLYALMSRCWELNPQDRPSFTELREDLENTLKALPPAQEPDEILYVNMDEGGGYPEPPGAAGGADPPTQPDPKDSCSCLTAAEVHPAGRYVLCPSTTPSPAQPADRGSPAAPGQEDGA
Description: (§1) Kinase activity and compound inhibition were investigated using the ^33P-Phosphoryl transfer radiometric kinase assay, performed using the KinaseProfiler™ service of Eurofins Pharma Discovery Services UK Limited. Dose-response experiments were performed using nine compound concentrations in a 96-well microtiter plate. For each assay, all compounds were prepared to a 50× final assay concentration (50 μM) in 100% DMSO, then diluted in a half-log series, with the final top concentration at 1 μM. This working stock of the compound was added to the assay well as the first component in the reaction, followed by the remaining components as detailed in the following assay protocols below. The positive control wells (100% kinase activity) contain all components of the reaction including 2% DMSO (control for solvent effects), except the compound of interest. Blank wells contain all components of the reaction, with the reference inhibitor, staurosporine. This reference compound was used to abolish kinase activity and generated the 0% kinase activity base-line. IC50 values were calculated by nonlinear regression analysis using the sigmoidal dose-response (variable slope) curve fit on XLFit version 5.3 (ID Business Solutions).
(§2) Human Axl (residues H473-A894 with Q764R, 161 nM) was incubated with 8 mM MOPS pH 7.0, 0.2 mM EDTA, 250 μM KKSRGDYMTMQIG, 10 mM magnesium acetate, and 10 μM [y-^33P-ATP]. The reaction was initiated by the addition of the Mg/ATP mix. After incubation for 40 minutes at room temperature, the reaction was stopped by the addition of phosphoric acid to a concentration of 0.5%. A reaction aliquot of 10 μL was then spotted onto a P30 filtermat and washed four times for 4 minutes in 0.425% phosphoric acid and once in methanol prior to drying and scintillation counting. Incorporated ^33P was measured using the Wallac Microbeta scintillation counter (Perkin Elmer).

KDR = KDR (Homo sapiens, UniProt P35968); test: Human KDR kinase assay (33P-phosphoryl transfer radiometric, KinaseProfiler); design: Human KDR (residues K790-V1356, 55 nM); purchased Eurofins Pharma Discovery Services UK Limited (KinaseProfiler service); settings: biochemical activity; 10 μM ATP
KDR, sequence (P35968 790-1356): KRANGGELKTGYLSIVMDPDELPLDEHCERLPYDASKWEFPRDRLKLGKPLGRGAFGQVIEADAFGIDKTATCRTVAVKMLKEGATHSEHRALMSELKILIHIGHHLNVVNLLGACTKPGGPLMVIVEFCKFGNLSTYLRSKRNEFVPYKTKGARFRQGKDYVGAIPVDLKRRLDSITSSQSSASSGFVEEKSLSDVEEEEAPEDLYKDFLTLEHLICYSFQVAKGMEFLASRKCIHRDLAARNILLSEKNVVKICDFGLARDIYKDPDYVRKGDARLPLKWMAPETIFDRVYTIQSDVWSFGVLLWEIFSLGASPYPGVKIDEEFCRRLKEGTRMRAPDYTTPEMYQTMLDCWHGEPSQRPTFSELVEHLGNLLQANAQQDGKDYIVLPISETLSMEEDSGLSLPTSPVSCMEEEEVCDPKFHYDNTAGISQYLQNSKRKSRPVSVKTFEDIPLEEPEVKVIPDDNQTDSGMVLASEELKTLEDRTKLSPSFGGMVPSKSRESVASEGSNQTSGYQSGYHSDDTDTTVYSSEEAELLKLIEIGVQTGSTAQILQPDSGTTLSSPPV
Description: as §1
as §2, with “KDR” for “Axl”, “K790-V1356, 55” for “H473-A894 with Q764R, 161”, “0.33 mg/mL myelin basic protein,” for “250 μM KKSRGDYMTMQIG,”, “[γ-^33P-ATP].” for “[y-^33P-ATP].”

Structure (SMILES)	IC50 (Human Axl) [nM]	IC50 (KDR) [nM]
CN1CCC(n2cc(-c3ccc4c(Oc5ccc(NC(=O)C6(C(=O)Nc7ccc(F)cc7)CC6)cc5)ccnc4c3)cn2)CC1 [Compound 61, 1-N′-(4-Fluorophenyl)-1-N-[4-[7-[1-(1-methylpiperidin-4-yl)pyrazol-4-yl]quinolin-4-yl]oxyphenyl]cyclopropane-1,1-dicarboxamide]	≤ 10	10 to 100
CC(=O)N1CCC(n2cc(-c3ccc4c(Oc5ccc(NC(=O)C6(C(=O)Nc7ccc(F)cc7)CC6)cc5)ccnc4c3)cn2)CC1 [Compound 62, 1-N-[4-[7-[1-(1-Acetylpiperidin-4-yl)pyrazol-4-yl]quinolin-4-yl]oxyphenyl]-1-N′-(4-fluorophenyl)cyclopropane-1,1-dicarboxamide]	≤ 10	10 to 100
C[Si](C)(C)C#Cc1ccc2c(Oc3ccc(NC(=O)C4(C(=O)Nc5ccc(F)cc5)CC4)cc3)ccnc2c1 [Compound 63, 1-N′-(4-Fluorophenyl)-1-N-[4-[7-(2-trimethylsilylethynyl)quinolin-4-yl]oxyphenyl]cyclopropane-1,1-dicarboxamide]	100 to 1000	100 to 1000
C#Cc1ccc2c(Oc3ccc(NC(=O)C4(C(=O)Nc5ccc(F)cc5)CC4)cc3)ccnc2c1 [Compound 64, 1-N-[4-(7-Ethynylquinolin-4-yl)oxyphenyl]-1-N′-(4-fluorophenyl)cyclopropane-1,1-dicarboxamide]	10 to 100	10 to 100
O=C(Nc1ccc(F)cc1)C1(C(=O)Nc2ccc(Oc3ccnc4cc(-c5cnn[nH]5)ccc34)cc2)CC1 [Compound 65, 1-N′-(4-Fluorophenyl)-1-N-[4-[7-(1H-triazol-5-yl)quinolin-4-yl]oxyphenyl]cyclopropane-1,1-dicarboxamide]	100 to 1000	100 to 1000
O=C(Nc1ccc(F)cc1)C1(C(=O)Nc2ccc(Oc3ccnc4cc(-c5ncco5)ccc34)cc2)CC1 [Compound 66, 1-N′-(4-Fluorophenyl)-1-N-[4-[7-(1,3-oxazol-2-yl)quinolin-4-yl]oxyphenyl]cyclopropane-1,1-dicarboxamide]	10 to 100	10 to 100
O=C(Nc1ccc(F)cc1)C1(C(=O)Nc2ccc(Oc3ccnc4cc(-c5cn[nH]c5)ccc34)cc2)CC1 [Compound 67, 1-N′-(4-Fluorophenyl)-1-N-[4-[7-(1H-pyrazol-4-yl)quinolin-4-yl]oxyphenyl]cyclopropane-1,1-dicarboxamide]	≤ 10	10 to 100
O=C(Nc1ccc(F)cc1)C1(C(=O)Nc2ccc(Oc3ccnc4cc(-c5ccn[nH]5)ccc34)cc2)CC1 [Compound 68, 1-N′-(4-Fluorophenyl)-1-N-[4-[7-(1H-pyrazol-5-yl)quinolin-4-yl]oxyphenyl]cyclopropane-1,1-dicarboxamide]	10 to 100	10 to 100
Cn1cnc(-c2ccc3c(Oc4ccc(NC(=O)C5(C(=O)Nc6ccc(F)cc6)CC5)cc4)ccnc3c2)c1 [Compound 69, 1-N′-(4-Fluorophenyl)-1-N-[4-[7-(1-methylimidazol-4-yl)quinolin-4-yl]oxyphenyl]cyclopropane-1,1-dicarboxamide]	≤ 10	10 to 100
O=C(Nc1ccc(F)cc1)C1(C(=O)Nc2ccc(Oc3ccnc4cc(-c5cnc[nH]5)ccc34)cc2)CC1 [Compound 72, 1-N′-(4-Fluorophenyl)-1-N-[4-[7-(1H-imidazol-5-yl)quinolin-4-yl]oxyphenyl]cyclopropane-1,1-dicarboxamide]	≤ 10	10 to 100
O=C(Nc1ccc(F)cc1)C1(C(=O)Nc2ccc(Oc3ccnc4cc(-c5nnco5)ccc34)cc2)CC1 [Compound 73, 1-N′-(4-Fluorophenyl)-1-N-[4-[7-(1,3,4-oxadiazol-2-yl)quinolin-4-yl]oxyphenyl]cyclopropane-1,1-dicarboxamide]	10 to 100	10 to 100
O=C(Nc1ccc(F)cc1)C1(C(=O)Nc2ccc(Oc3ccnc4cc(-c5ncc[nH]5)ccc34)cc2)CC1 [Compound 74, 1-N′-(4-Fluorophenyl)-1-N-[4-[7-(1H-imidazol-2-yl)quinolin-4-yl]oxyphenyl]cyclopropane-1,1-dicarboxamide]	≤ 10	10 to 100
Cn1ccnc1-c1ccc2c(Oc3ccc(NC(=O)C4(C(=O)Nc5ccc(F)cc5)CC4)cc3)ccnc2c1 [Compound 75, 1-N′-(4-Fluorophenyl)-1-N-[4-[7-(1-methylimidazol-2-yl)quinolin-4-yl]oxyphenyl]cyclopropane-1,1-dicarboxamide]	10 to 100	10 to 100
COc1cc2c(Oc3ccc(NC(=O)C4(C(=O)Nc5ccc(F)cc5)CC4)cc3)ccnc2cc1-c1cnn(C)c1 [Compound 76, 1-N′-(4-Fluorophenyl)-1-N-[4-[6-methoxy-7-(1-methylpyrazol-4-yl)quinolin-4-yl]oxyphenyl]cyclopropane-1,1-dicarboxamide]	≤ 10	10 to 100
CNC(=O)c1cc2c(Oc3ccc(NC(=O)C4(C(=O)Nc5ccc(F)cc5)CC4)cc3)ccnc2cc1-c1cnn(C)c1 [Compound 77, 1-N′-(4-Fluorophenyl)-1-N-[4-[6-(methylcarbamoyl)-7-(1-methylpyrazol-4-yl)quinolin-4-yl]oxyphenyl]cyclopropane-1,1-dicarboxamide]	10 to 100	10 to 100
Cc1cc2c(Oc3ccc(NC(=O)C4(C(=O)Nc5ccc(F)cc5)CC4)cc3)ccnc2cc1-c1cnn(C)c1 [Compound 78, 1-N′-(4-Fluorophenyl)-1-N-[4-[6-methyl-7-(1-methylpyrazol-4-yl)quinolin-4-yl]oxyphenyl]cyclopropane-1,1-dicarboxamide]	≤ 10	10 to 100
CS(=O)(=O)n1cc(-c2ccc3c(Oc4ccc(NC(=O)C5(C(=O)Nc6ccc(F)cc6)CC5)cc4)ccnc3c2)cn1 [Compound 79, 1-N′-(4-Fluorophenyl)-1-N-[4-[7-(1-methylsulfonylpyrazol-4-yl)quinolin-4-yl]oxyphenyl]cyclopropane-1,1-dicarboxamide]	≤ 10	10 to 100
CC1Cc2cc(F)ccc2N1C(=O)C1(C(=O)Nc2ccc(Oc3ccnc4cc(-c5cnn(C)c5)ccc34)cc2)CC1 (centres unmarked) [Compound 80, 1-(5-Fluoro-2-methyl-2,3-dihydroindole-1-carbonyl)-N-[4-[7-(1-methylpyrazol-4-yl)quinolin-4-yl]oxyphenyl]cyclopropane-1-carboxamide]	10 to 100	100 to 1000
Cn1cc(-c2ccc3c(Oc4ccc(NC(=O)C5(C(=O)N6CCc7cc(F)ccc76)CC5)cc4)ccnc3c2)cn1 [Compound 81, 1-(5-Fluoro-2,3-dihydroindole-1-carbonyl)-N-[4-[7-(1-methylpyrazol-4-yl)quinolin-4-yl]oxyphenyl]cyclopropane-1-carboxamide]	≤ 10	10 to 100
Cc1cc(F)cc(C)c1NC(=O)C1(C(=O)Nc2ccc(Oc3ccnc4cc(-c5cnn(C)c5)ccc34)cc2)CC1 [Compound 82, 1-N′-(4-Fluoro-2,6-dimethylphenyl)-1-N-[4-[7-(1-methylpyrazol-4-yl)quinolin-4-yl]oxyphenyl]cyclopropane-1,1-dicarboxamide]	10 to 100	10 to 100
CN(C(=O)C1(C(=O)Nc2ccc(Oc3ccnc4cc(-c5cnn(C)c5)ccc34)cc2)CC1)c1ccc(F)cc1 [Compound 82A, 1-N′-(4-Fluorophenyl)-1-N′-methyl-1-N-[4-[7-(1-methylpyrazol-4-yl)quinolin-4-yl]oxyphenyl]cyclopropane-1,1-dicarboxamide]	100 to 1000	100 to 1000
O=C(Nc1ccc(F)cc1)C1(C(=O)Nc2ccc(Oc3ccnc4cc(C5CCNC5)ccc34)cc2)CC1 (centres unmarked) [Compound 83, 1-N′-(4-Fluorophenyl)-1-N-[4-(7-pyrrolidin-3-ylquinolin-4-yl)oxyphenyl]cyclopropane-1,1-dicarboxamide]	10 to 100	10 to 100
